{"source": "ChEMBL document CHEMBL3885861", "about": "“Open TG-GATES”", "species": "Rattus norvegicus", "test": "Open TG-GATES - Regimen: Daily Repeat", "assay_type": "toxicity, organism-based, Sprague-Dawley", "design": "regimen Daily Repeat, gender Male, age 6 weeks", "settings": "in vivo, po, 1000 mg/kg, […], route gavage, dose level High; for KIDNEY_L / KIDNEY_R / KIDNEY_TOTAL: tissue Kidney; for LIVER: tissue Liver; for ALP / AST / BUN / CRE / Ca / Cl / DBIL / GLC / IP / K / LDH / Na / PL / RALB / TBIL / TC / TG / TP / gamma-GTP: tissue Plasma"}
{"smiles": "COc1ccc2[nH]c([S+]([O-])Cc3ncc(C)c(OC)c3C)nc2c1", "note": "(configuration not stated) [OMEPRAZOLE]", "values": [{"measurement": "Hb", "setting": "tissue Blood, time 28 day", "result": 12, "unit": "g/dL"}, {"measurement": "Ht", "setting": "tissue Blood, time 28 day", "result": 35.7, "unit": "%"}, {"measurement": "Lym", "setting": "tissue Blood, time 28 day", "result": 78.6, "unit": "%"}, {"measurement": "MCH", "setting": "tissue Blood, time 28 day", "result": 17.3, "unit": "pg"}, {"measurement": "MCHC", "setting": "tissue Blood, time 28 day", "result": 33.7, "unit": "%"}, {"measurement": "MCV", "setting": "tissue Blood, time 28 day", "result": 51.3, "unit": "fL"}, {"measurement": "Mono", "setting": "tissue Blood, time 28 day", "result": 2.2, "unit": "%"}, {"measurement": "Neu", "setting": "tissue Blood, time 28 day", "result": 17.6, "unit": "%"}, {"measurement": "PT", "setting": "tissue Blood, time 28 day", "result": 12.3, "unit": "s"}, {"measurement": "Plat", "setting": "tissue Blood, time 28 day", "result": 124, "unit": "x10_4/uL"}, {"measurement": "RBC", "setting": "tissue Blood, time 28 day", "result": 697.2, "unit": "x10_4/ul"}, {"measurement": "Ret", "setting": "tissue Blood, time 28 day", "result": 4, "unit": "%"}, {"measurement": "WBC", "setting": "tissue Blood, time 28 day", "result": 152.6, "unit": "x10_2/uL"}, {"measurement": "KIDNEY_L", "setting": "time 7 day", "result": 1.1, "unit": "g"}, {"measurement": "KIDNEY_R", "setting": "time 7 day", "result": 1.1, "unit": "g"}, {"measurement": "KIDNEY_TOTAL", "setting": "time 7 day", "result": 2.1, "unit": "g"}, {"measurement": "KIDNEY_L", "setting": "time 14 day", "result": 1.2, "unit": "g"}, {"measurement": "KIDNEY_R", "setting": "time 14 day", "result": 1.2, "unit": "g"}, {"measurement": "KIDNEY_TOTAL", "setting": "time 14 day", "result": 2.3, "unit": "g"}, {"measurement": "KIDNEY_L", "setting": "time 28 day", "result": 1.2, "unit": "g"}, {"measurement": "KIDNEY_R", "setting": "time 28 day", "result": 1.2, "unit": "g"}, {"measurement": "KIDNEY_TOTAL", "setting": "time 28 day", "result": 2.5, "unit": "g"}, {"measurement": "LIVER", "setting": "time 7 day", "result": 18.1, "unit": "g"}, {"measurement": "LIVER", "setting": "time 14 day", "result": 21.2, "unit": "g"}, {"measurement": "LIVER", "setting": "time 28 day", "result": 21.4, "unit": "g"}, {"measurement": "ALP", "setting": "time 7 day", "result": 661.8, "unit": "IU/L"}, {"measurement": "AST", "setting": "time 7 day", "result": 59.2, "unit": "IU/L"}, {"measurement": "BUN", "setting": "time 7 day", "result": 16.6, "unit": "mg/dL"}, {"measurement": "CRE", "setting": "time 7 day", "result": 0.4, "unit": "mg/dL"}, {"measurement": "Ca", "setting": "time 7 day", "result": 10.7, "unit": "mg/dL"}, {"measurement": "Cl", "setting": "time 7 day", "result": 101.4, "unit": "meq/L"}, {"measurement": "DBIL", "setting": "time 7 day", "result": 0.064, "unit": "mg/dL"}, {"measurement": "GLC", "setting": "time 7 day", "result": 187.4, "unit": "mg/dL"}, {"measurement": "IP", "setting": "time 7 day", "result": 8.2, "unit": "mg/dL"}, {"measurement": "K", "setting": "time 7 day", "result": 3.9, "unit": "meq/L"}, {"measurement": "LDH", "setting": "time 7 day", "result": 242.4, "unit": "IU/L"}, {"measurement": "Na", "setting": "time 7 day", "result": 140.6, "unit": "meq/L"}, {"measurement": "PL", "setting": "time 7 day", "result": 200.8, "unit": "mg/dL"}, {"measurement": "RALB", "setting": "time 7 day", "result": 3.5, "unit": "g/dL"}, {"measurement": "TBIL", "setting": "time 7 day", "result": 0.1, "unit": "mg/dL"}, {"measurement": "TC", "setting": "time 7 day", "result": 117.6, "unit": "mg/dL"}, {"measurement": "TG", "setting": "time 7 day", "result": 62.4, "unit": "mg/dL"}, {"measurement": "TP", "setting": "time 7 day", "result": 6.2, "unit": "g/dL"}, {"measurement": "gamma-GTP", "setting": "time 7 day", "result": 2.6, "unit": "IU/L"}, {"measurement": "ALP", "setting": "time 14 day", "result": 599, "unit": "IU/L"}, {"measurement": "AST", "setting": "time 14 day", "result": 52.6, "unit": "IU/L"}, {"measurement": "BUN", "setting": "time 14 day", "result": 18.2, "unit": "mg/dL"}, {"measurement": "CRE", "setting": "time 14 day", "result": 0.5, "unit": "mg/dL"}, {"measurement": "Ca", "setting": "time 14 day", "result": 10.8, "unit": "mg/dL"}, {"measurement": "Cl", "setting": "time 14 day", "result": 102.8, "unit": "meq/L"}, {"measurement": "DBIL", "setting": "time 14 day", "result": 0.072, "unit": "mg/dL"}, {"measurement": "GLC", "setting": "time 14 day", "result": 191.4, "unit": "mg/dL"}, {"measurement": "IP", "setting": "time 14 day", "result": 7.8, "unit": "mg/dL"}, {"measurement": "K", "setting": "time 14 day", "result": 3.9, "unit": "meq/L"}, {"measurement": "LDH", "setting": "time 14 day", "result": 195.8, "unit": "IU/L"}, {"measurement": "Na", "setting": "time 14 day", "result": 141.2, "unit": "meq/L"}, {"measurement": "PL", "setting": "time 14 day", "result": 206.6, "unit": "mg/dL"}, {"measurement": "RALB", "setting": "time 14 day", "result": 3.6, "unit": "g/dL"}, {"measurement": "TBIL", "setting": "time 14 day", "result": 0.1, "unit": "mg/dL"}, {"measurement": "TC", "setting": "time 14 day", "result": 120.8, "unit": "mg/dL"}, {"measurement": "TG", "setting": "time 14 day", "result": 77.8, "unit": "mg/dL"}, {"measurement": "TP", "setting": "time 14 day", "result": 6.3, "unit": "g/dL"}, {"measurement": "gamma-GTP", "setting": "time 14 day", "result": 2.2, "unit": "IU/L"}, {"measurement": "ALP", "setting": "time 28 day", "result": 458.4, "unit": "IU/L"}, {"measurement": "AST", "setting": "time 28 day", "result": 50.6, "unit": "IU/L"}, {"measurement": "BUN", "setting": "time 28 day", "result": 18.2, "unit": "mg/dL"}, {"measurement": "CRE", "setting": "time 28 day", "result": 0.5, "unit": "mg/dL"}, {"measurement": "Ca", "setting": "time 28 day", "result": 10.7, "unit": "mg/dL"}, {"measurement": "Cl", "setting": "time 28 day", "result": 102.2, "unit": "meq/L"}, {"measurement": "DBIL", "setting": "time 28 day", "result": 0.07, "unit": "mg/dL"}, {"measurement": "GLC", "setting": "time 28 day", "result": 190.8, "unit": "mg/dL"}, {"measurement": "IP", "setting": "time 28 day", "result": 6.9, "unit": "mg/dL"}, {"measurement": "K", "setting": "time 28 day", "result": 3.9, "unit": "meq/L"}, {"measurement": "LDH", "setting": "time 28 day", "result": 119.2, "unit": "IU/L"}, {"measurement": "Na", "setting": "time 28 day", "result": 142.6, "unit": "meq/L"}, {"measurement": "PL", "setting": "time 28 day", "result": 185.8, "unit": "mg/dL"}, {"measurement": "RALB", "setting": "time 28 day", "result": 3.8, "unit": "g/dL"}, {"measurement": "TBIL", "setting": "time 28 day", "result": 0.1, "unit": "mg/dL"}, {"measurement": "TC", "setting": "time 28 day", "result": 102.4, "unit": "mg/dL"}, {"measurement": "TG", "setting": "time 28 day", "result": 49, "unit": "mg/dL"}, {"measurement": "TP", "setting": "time 28 day", "result": 6.6, "unit": "g/dL"}, {"measurement": "gamma-GTP", "setting": "time 28 day", "result": 2.4, "unit": "IU/L"}]}
